Experimental data taken from patent US20010036949A1, “Pharmaceutical composition and method of treatment of diseases of cognitive dysfunction in a mammal” (priority 2000, published 2001).

What was measured:
[1] = biological target: T1, human m4 receptor (Homo sapiens, UniProt P08173); assay: Inhibition of forskolin-stimulated cAMP accumulation, m4 receptor; format: cell-based; conditions: standard agonist, typical value, 5 uM forskolin
T1 construct: host or cells: CHO-K1
T1 sequence (P08173 1-479): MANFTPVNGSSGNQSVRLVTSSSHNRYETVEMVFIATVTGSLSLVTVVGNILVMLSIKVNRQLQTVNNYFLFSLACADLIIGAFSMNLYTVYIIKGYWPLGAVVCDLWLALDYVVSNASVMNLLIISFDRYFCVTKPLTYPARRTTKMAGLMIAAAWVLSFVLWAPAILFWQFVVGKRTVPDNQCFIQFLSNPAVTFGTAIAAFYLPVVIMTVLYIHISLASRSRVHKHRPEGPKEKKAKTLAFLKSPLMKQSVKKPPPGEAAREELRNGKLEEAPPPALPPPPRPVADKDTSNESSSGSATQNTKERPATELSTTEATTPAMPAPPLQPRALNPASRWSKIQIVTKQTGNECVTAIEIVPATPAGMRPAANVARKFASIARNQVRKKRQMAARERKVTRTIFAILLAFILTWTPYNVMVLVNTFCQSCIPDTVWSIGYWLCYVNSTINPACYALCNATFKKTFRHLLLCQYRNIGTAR
Description: (§1) The activity of muscarinic receptors can be determined according to the following protocol. Chinese hamster ovary cells (CHO-K1) stably transformed to express human m1-m5_receptors can be obtained from Dr. Tom Bonner (Laboratory of Cell Biology, National Institute of Mental Health, Building 36, Rm 3A-17, National Institute of Health, Bethesda, Md. 20892). Cells are maintained in Dulbecco's Modified Eagle Medium containing 10% fetal calf serum and harvested at confluence by brief incubation in Ca++/Mg++_free phosphate-buffered saline containing 4 mM EDTA.
(§2) Functional responses at m2 and m4 receptors can be determined by measuring inhibition of forskolin-stimulated cAMP accumulation. Harvested cells are preincubated (15 minutes at 20-22° C.) with 3-isobutyl-1-methyl-xanthine ([…]; 0.2 mM) and then incubated (10 minutes at 20-22° C.) in a HEPES-buffered Krebs solution with test compounds in the presence of 5 uM forskolin. The reaction is stopped by the addition of 10N acetic acid and the CAMP content of dried supernatants is determined using a scintillation proximity assay (Amersham).

[2] = biological target: T2, human m2 receptor (Homo sapiens, UniProt P08172); assay: Inhibition of forskolin-stimulated cAMP accumulation, m2 receptor; format: cell-based; conditions: standard agonist, typical value, 5 uM forskolin
T2 sequence (P08172 1-466): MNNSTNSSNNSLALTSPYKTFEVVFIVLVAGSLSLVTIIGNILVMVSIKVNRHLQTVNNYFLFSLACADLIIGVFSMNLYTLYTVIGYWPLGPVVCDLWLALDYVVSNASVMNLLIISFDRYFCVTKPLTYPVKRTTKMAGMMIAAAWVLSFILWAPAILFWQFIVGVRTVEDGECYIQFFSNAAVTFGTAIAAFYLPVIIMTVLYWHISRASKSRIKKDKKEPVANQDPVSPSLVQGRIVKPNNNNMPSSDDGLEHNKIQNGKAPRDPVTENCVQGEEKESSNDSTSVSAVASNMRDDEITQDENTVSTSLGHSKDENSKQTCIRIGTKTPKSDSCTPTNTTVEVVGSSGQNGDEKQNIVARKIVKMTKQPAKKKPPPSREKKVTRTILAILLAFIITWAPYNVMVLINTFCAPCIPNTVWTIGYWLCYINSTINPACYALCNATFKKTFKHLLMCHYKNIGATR
Description: as §1, §2

- inhibition of the forskolin-stimulated cAMP levels [1]: 60-80%
- inhibition of the forskolin-stimulated cAMP levels [2]: 60-80%
Structure (SMILES): C[N+](C)(C)CCOC(N)=O [Carbachol]
